{"source": "patent US20150182586A1", "about": "“DAIRY FARM TEAT DIP COMPOSITIONS AND METHODS” (Advanced BioCatalytics Corporation, priority 2013, published 2015)", "tested_on": "mastitis", "assay": "Teat dip field test, Dairy 3 (spray, raw milk dairy, 6 week test period)", "type": "in vivo", "settings": "Dairy 3, pre and post milking; chlorine dioxide on cows without previous mastitis (Pens 0, 1, 3, 5), Example 1 on cows with previous mastitis (Pen 7)", "source_text": "Dairy 3 produces raw milk and uses a spray method for applying teat dips. A key factor to note is that Example 1 was used on cows that previously had mastitis. The results of Table 5 compare using chlorine dioxide on cows that had not had mastitis, to using Example 1 on cows that were more susceptible due to previous bouts with mastitis. Once a cow developed mastitis in Dairy 3, it is not used in the production of raw milk. […] Pen No's. 0, 1, 3 and 5 used chlorine dioxide for both pre and post milking. Pen No. 7 used Example 1 for the 6 week test period. In all pens, the cows were retained in pens with saw dust in between milking cycles to reduce the chance of spreading infectious disease.\nThe number of cows that were […] using the composition of Example 1, for both pre and post milking, during the 6 week test period was 5.3% as shown in Table 5. Table 6 defines the number of cows in each respective pen of Table 5.", "data": [{"smiles": "[O][Cl+][O-]", "note": "[chlorine dioxide]", "values": [{"measurement": "cows that developed mastitis during the 6 week test period", "value": 5.7, "unit": "%"}]}]}
